The values below come from ChEMBL document CHEMBL3991601, “The target landscape of clinical kinase drugs” (Science, 2017).

Experiment [1] concerns the target T1, General transcription and DNA repair factor IIH helicase subunit XPD (Homo sapiens, UniProt P18074).
T1 sequence (P18074 whole entry): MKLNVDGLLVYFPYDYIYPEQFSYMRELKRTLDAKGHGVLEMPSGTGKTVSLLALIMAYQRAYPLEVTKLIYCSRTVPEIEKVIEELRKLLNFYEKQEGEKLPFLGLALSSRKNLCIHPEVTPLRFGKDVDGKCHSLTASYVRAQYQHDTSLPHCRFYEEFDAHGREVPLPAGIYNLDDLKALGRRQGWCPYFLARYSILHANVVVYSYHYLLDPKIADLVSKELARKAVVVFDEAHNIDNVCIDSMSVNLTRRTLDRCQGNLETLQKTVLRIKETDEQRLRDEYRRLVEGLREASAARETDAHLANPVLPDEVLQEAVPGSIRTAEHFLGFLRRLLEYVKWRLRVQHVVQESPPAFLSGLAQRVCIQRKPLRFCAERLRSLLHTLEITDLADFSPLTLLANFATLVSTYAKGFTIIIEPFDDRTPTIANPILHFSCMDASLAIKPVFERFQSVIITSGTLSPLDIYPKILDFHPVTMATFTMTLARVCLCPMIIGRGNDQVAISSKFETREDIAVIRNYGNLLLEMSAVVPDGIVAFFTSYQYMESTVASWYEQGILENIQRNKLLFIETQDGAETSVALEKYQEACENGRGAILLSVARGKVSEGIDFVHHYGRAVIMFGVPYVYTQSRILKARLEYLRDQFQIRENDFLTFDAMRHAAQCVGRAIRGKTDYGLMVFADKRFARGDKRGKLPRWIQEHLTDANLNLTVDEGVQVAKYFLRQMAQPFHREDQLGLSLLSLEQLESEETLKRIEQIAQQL
The following applies: read-out: Kd apparent; k-562, colo 205, sk-n-be(2) and mv-4-11.

Experiment [2] addresses T2, Scaffold protein ILK (Homo sapiens, UniProt Q13418).
T2 sequence (Q13418 whole entry): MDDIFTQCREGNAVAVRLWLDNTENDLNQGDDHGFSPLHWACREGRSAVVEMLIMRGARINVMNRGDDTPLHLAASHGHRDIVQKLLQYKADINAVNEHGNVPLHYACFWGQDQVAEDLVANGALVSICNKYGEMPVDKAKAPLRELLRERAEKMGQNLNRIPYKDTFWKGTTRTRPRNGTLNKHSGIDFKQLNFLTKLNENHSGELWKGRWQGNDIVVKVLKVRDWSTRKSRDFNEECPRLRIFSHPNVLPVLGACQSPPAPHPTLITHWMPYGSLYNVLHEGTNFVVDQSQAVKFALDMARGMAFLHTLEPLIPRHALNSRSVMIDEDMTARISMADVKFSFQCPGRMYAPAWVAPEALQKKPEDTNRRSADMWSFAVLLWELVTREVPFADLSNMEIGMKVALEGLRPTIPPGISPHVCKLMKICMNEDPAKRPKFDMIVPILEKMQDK

Experiment [3] deals with Serine/threonine-protein kinase SIK3 (Homo sapiens, UniProt Q9Y2K2).
Sequence of Serine/threonine-protein kinase SIK3 (Q9Y2K2 whole entry): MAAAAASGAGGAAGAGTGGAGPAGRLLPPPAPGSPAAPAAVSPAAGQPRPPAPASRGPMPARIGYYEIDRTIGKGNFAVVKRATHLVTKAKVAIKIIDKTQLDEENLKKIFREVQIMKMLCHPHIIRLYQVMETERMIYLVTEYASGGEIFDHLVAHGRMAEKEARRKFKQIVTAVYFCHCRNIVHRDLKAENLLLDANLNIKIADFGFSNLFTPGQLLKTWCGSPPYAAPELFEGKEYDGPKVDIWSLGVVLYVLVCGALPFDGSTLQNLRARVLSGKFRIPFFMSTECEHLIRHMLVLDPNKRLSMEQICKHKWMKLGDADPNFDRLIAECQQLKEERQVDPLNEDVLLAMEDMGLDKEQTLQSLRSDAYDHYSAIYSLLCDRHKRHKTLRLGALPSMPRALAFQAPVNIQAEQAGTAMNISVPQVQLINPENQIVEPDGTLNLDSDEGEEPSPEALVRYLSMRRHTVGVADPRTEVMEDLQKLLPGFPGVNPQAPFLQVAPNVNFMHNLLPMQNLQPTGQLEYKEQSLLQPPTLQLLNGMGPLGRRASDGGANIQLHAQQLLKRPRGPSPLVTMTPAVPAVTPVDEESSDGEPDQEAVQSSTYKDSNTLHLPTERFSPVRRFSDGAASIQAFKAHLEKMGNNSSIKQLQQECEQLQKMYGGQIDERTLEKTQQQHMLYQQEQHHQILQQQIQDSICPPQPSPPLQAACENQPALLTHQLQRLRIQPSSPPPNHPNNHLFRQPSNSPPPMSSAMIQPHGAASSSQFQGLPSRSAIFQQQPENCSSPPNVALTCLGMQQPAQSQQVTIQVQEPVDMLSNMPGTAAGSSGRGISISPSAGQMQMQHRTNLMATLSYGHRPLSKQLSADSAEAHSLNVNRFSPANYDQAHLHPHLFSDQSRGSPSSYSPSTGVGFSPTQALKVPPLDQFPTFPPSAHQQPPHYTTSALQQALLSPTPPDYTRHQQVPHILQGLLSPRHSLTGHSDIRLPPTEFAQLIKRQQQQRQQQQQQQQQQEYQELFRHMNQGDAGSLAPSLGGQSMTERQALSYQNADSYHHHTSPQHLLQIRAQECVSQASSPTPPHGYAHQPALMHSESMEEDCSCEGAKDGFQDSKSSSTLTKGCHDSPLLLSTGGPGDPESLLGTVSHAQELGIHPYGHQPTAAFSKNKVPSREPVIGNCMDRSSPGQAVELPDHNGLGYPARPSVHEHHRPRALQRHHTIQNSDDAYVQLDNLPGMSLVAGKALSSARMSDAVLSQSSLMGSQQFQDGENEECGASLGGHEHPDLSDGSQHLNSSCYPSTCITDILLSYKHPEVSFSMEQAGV
Experiment [4] concerns the target T3, Glycine--tRNA ligase (Homo sapiens, UniProt P41250).
T3 sequence (P41250 whole entry): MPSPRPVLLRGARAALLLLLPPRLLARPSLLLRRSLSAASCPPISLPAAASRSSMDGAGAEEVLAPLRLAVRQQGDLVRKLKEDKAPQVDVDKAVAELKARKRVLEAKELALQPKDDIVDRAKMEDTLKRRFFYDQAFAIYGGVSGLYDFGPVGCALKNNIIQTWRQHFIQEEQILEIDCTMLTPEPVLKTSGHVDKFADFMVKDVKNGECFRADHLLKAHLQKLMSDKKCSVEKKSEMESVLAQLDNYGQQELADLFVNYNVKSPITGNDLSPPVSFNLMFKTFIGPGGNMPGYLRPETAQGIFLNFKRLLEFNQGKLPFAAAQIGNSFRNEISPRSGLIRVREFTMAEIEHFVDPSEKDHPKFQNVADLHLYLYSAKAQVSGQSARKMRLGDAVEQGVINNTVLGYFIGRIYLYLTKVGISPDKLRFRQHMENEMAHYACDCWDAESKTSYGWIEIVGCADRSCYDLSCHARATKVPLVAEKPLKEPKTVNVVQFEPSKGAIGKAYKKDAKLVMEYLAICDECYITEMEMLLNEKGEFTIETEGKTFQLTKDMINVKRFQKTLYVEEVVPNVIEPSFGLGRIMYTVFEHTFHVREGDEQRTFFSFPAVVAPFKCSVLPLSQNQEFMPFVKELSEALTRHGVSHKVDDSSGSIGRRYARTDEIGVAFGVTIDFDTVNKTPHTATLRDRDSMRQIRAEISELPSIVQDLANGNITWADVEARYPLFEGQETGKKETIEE

In experiment [5] the target is Mitogen-activated protein kinase 10 (Homo sapiens, UniProt P53779).
Sequence of Mitogen-activated protein kinase 10 (P53779 whole entry): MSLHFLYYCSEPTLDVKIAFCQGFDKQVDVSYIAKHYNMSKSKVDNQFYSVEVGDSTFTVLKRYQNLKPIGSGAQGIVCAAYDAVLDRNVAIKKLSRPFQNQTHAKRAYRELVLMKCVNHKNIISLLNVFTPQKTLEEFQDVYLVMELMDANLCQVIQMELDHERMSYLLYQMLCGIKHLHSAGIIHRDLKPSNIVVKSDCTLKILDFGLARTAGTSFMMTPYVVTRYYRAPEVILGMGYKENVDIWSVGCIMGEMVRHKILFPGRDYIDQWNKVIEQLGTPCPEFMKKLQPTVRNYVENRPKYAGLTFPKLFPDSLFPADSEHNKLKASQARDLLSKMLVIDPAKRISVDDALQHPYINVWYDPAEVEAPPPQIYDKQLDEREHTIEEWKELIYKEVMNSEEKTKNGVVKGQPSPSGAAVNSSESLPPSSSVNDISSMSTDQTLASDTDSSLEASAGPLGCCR
In experiment [6] the target is T4, Aurora kinase A (Homo sapiens, UniProt O14965).
T4 sequence (O14965 whole entry): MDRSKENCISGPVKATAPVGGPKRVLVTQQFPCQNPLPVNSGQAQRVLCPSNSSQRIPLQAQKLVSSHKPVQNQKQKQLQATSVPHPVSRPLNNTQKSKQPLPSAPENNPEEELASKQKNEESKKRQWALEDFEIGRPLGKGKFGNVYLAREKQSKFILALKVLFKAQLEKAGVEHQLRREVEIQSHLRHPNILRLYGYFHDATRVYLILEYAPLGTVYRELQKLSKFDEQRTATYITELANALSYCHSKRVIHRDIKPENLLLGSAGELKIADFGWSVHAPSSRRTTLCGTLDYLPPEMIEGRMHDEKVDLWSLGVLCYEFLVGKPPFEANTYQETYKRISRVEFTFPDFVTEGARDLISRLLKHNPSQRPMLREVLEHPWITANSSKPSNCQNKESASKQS

pKd: −log10 of the molar value. Activity calls are given as the source filed them. Cut-off read from the data, not from the text of the source, for most assays here: actives have a measured Kd and inactives only a lower limit. Bounds are passed on as bounds.
Note: in the data inactive means no Kd found up to 30 µM.

For `CCc1nc(C(N)=O)c(Nc2ccc(N3CCC(N4CCN(C)CC4)CC3)c(OC)c2)nc1NC1CCOCC1` [GILTERITINIB], the Kd in experiment [1] is > 30 µM (inactive); in experiment [2] it was > 30 µM (inactive); in experiment [3], > 30 µM (inactive); in experiment [4], > 30 µM (inactive); in experiment [5] it was 0.512 µM (active). The pKd (commonly −log10 of the Kd, conventionally taken in molar units) in experiment [6] was 6.74.

Regarding `Cc1ccc(C(=O)Nc2ccc(Oc3cc4cnn(C)c4cc3-c3cn[nH]c3)c(F)c2)c(=O)n1-c1ccc(F)cc1` [MERESTINIB], the Kd in experiment [1], in experiment [2], in experiment [3], in experiment [4], in experiment [5] and in experiment [6] was > 30 µM (inactive) in each case.

Take `C#Cc1cccc(Nc2ncnc3cc4c(cc23)OCCOCCOCCO4)c1` [ICOTINIB]: the Kd in experiment [1], in experiment [2], in experiment [3], in experiment [4], in experiment [5] and in experiment [6] was > 30 µM (inactive) in each case.

`C=CCn1c(=O)c2cnc(Nc3ccc(N4CCN(C)CC4)cc3)nc2n1-c1cccc(C(C)(C)O)n1` [ADAVOSERTIB]: the Kd in experiment [1], in experiment [2], in experiment [3], in experiment [4], in experiment [5] and in experiment [6] was > 30 µM (inactive) throughout.

Consider `FC(F)(F)c1ccc(CNc2ccc(Cc3c[nH]c4ncc(Cl)cc34)cn2)cn1` [PEXIDARTINIB], for which the Kd in experiment [2], in experiment [3], in experiment [4], in experiment [5] and in experiment [6] was > 30 µM (inactive) each time.

For `CNC(=O)c1cc(COc2nnc(Nc3ccc(Cl)cc3)c3ccoc23)ccn1` [TELATINIB], the Kd in experiment [1], in experiment [3], in experiment [4], in experiment [5] and in experiment [6] was > 30 µM (inactive) throughout. The same compound showed a negative-log Kd (pKd) in experiment [2] of 7.49.

Take `COc1cc2ncnc3c2cc1OCCCCCN(C)Cc1ccc(Br)cc1N3` [JNJ-26483327]: the Kd in experiment [1], in experiment [2], in experiment [3], in experiment [4], in experiment [5] and in experiment [6] was > 30 µM (inactive) throughout.

Turning to `CNC(=O)c1cccc(-c2ccc3c(N4CCOC[C@@H]4C)nc(N4CCOC[C@@H]4C)nc3n2)c1` [VISTUSERTIB], the Kd in experiment [1], in experiment [2], in experiment [3], in experiment [4], in experiment [5] and in experiment [6] was > 30 µM (inactive) each time.

`CC1(COc2ccc3c(c2)ncn3-c2ccc3cccc(N4CCC(N)CC4)c3n2)COC1` [CRENOLANIB]: the Kd is > 30 µM (inactive) in experiment [1], 0.002 µM (active) in experiment [3], > 30 µM (inactive) in experiment [5] and > 30 µM (inactive) in experiment [6]. Also, the pKd in experiment [2] was 5.88.

Turning to `O=S(=O)(c1cccc2cnccc12)N1CCCNCC1` [FASUDIL], the Kd in experiment [1], in experiment [2], in experiment [3], in experiment [4], in experiment [5] and in experiment [6] was > 30 µM (inactive) throughout.

On to `Cc1cc(-c2cc(OC(=O)c3ccccc3)ccc2Cl)cc2nnc(Nc3ccc(OCCN4CCCC4)cc3)nc12` [TG100-801], for which the Kd in experiment [1], in experiment [2], in experiment [3], in experiment [4], in experiment [5] and in experiment [6] was > 30 µM (inactive) in each case.

Regarding `O=C(Nc1ccc(OC(F)(F)F)cc1)c1sccc1NCc1ccnc2ccccc12` [OSI-930], the Kd in experiment [1], in experiment [2], in experiment [3], in experiment [4], in experiment [5] and in experiment [6] was > 30 µM (inactive) throughout.

`COc1ccc(-c2ccc3ncc4c(c3c2)n(-c2ccc(N3CCNCC3)c(C(F)(F)F)c2)c(=O)n4C)cn1` [BGT-226 FREE BASE]: the Kd in experiment [1], in experiment [2], in experiment [3], in experiment [4], in experiment [5] and in experiment [6] was > 30 µM (inactive) throughout.

For `CNC(=O)c1ccc(Nc2ncc(C(F)(F)F)c(NCc3nccnc3N(C)S(C)(=O)=O)n2)cc1` [DEFACTINIB], the Kd is 2.26 µM (active) in experiment [1]; > 30 µM (inactive) in experiment [2]; > 30 µM (inactive) in experiment [3]; > 30 µM (inactive) in experiment [4]; > 30 µM (inactive) in experiment [5]; 0.622 µM (active) in experiment [6].

Regarding `COc1cccc(Nc2ncnn3ccc(CN4CC[C@@H](N)[C@H](O)C4)c23)c1` [BMS-690514], the Kd in experiment [2], in experiment [3], in experiment [4], in experiment [5] and in experiment [6] was > 30 µM (inactive) in each case.

As to `C=CC(=O)Nc1cc(Nc2nccc(-c3cn(C)c4ccccc34)n2)c(OC)cc1N(C)CCN(C)C` [OSIMERTINIB], the Kd in experiment [2], in experiment [3], in experiment [4], in experiment [5] and in experiment [6] was > 30 µM (inactive) throughout.

For `CC(C)(O)CC(=O)NCCn1ccc2ncnc(Nc3ccc(Oc4cccc(C(F)(F)F)c4)c(Cl)c3)c21` [TAK-285], the Kd in experiment [2], in experiment [3], in experiment [4], in experiment [5] and in experiment [6] was > 30 µM (inactive) throughout.
